Test results reported in US20260226048A1, “MULTI-CYCLIC IRAK AND FLT3 INHIBITING COMPOUNDS AND USES THEREOF” (CHILDREN'S HOSPITAL MEDICAL CENTER, priority 2023, published 2026).
Read-outs that look alike come from different tables or passages of the source.

Assays:
[1] = tested on: MOLM14-D835Y cells (FLT3-ITD (D835Y) mutant); experiment: Combination drug screening with venetoclax in MOLM14 (D835Y) cells (Cell Titre Glo, 10 × 10); format: cell-based; parameters: Excess HSA (sum excess HSA score, combination with venetoclax): scale not given here; settings: for Excess HSA (sum excess HSA score, combination with venetoclax): 10 × 10 dataset, Cell Titre Glo at 48 hours, optimal of 4 dose combinations, negative = synergy; for Concentration of a compound of the disclosure, or gilteritinib, needed to decrease the 62.5 nM Ven response to <10% in MOLM14(D835Y) cells: combination with 62.5 nM Venetoclax, Cell Titer Glo, 48 hours, response <10%
Protocol: (§1) These assays were performed using the Cell Titre Glo assay, measured at 48 hours.
(§2) A smaller concentration indicates higher potency to synergize with Venetoclax.

IRAK4 = target: T1, IRAK4 (Homo sapiens, UniProt Q9NWZ3); experiment: RBC HotSpot Kinase Assay, IRAK4; format: biochemical; parameters: purchased Reaction Biology (RBC HotSpot); settings: isolated kinase enzyme, 33P-ATP, P81 filter-binding
T1 sequence (Q9NWZ3 1-460): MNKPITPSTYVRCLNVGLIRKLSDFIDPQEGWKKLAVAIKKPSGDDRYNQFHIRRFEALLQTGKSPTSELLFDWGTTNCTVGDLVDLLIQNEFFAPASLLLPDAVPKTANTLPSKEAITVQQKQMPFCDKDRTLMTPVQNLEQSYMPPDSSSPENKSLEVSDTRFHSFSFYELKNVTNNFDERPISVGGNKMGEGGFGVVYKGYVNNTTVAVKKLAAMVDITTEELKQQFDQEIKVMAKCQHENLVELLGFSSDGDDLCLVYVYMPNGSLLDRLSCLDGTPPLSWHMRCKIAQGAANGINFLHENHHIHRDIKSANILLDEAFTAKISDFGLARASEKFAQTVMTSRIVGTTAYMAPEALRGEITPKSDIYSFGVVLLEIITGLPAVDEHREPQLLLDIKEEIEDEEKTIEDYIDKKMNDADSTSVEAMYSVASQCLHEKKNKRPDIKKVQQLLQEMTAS
Procedure, shortened: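 Radiometric filter-binding activity assay with isolated recombinant kinase (construct may be truncated or catalytic domain only) in 20 mM Hepes pH 7.5, 10 mM MgCl2, 1 mM EGTA, 2 mM DTT, 1% DMSO. Compound preincubated 20 min with kinase/substrate; reaction started with 33P-ATP, run 2 h at room temperature.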

FLT3 = target: T2, FLT3 (Homo sapiens, UniProt P36888); experiment: RBC HotSpot Kinase Assay, FLT3; format: biochemical; parameters: purchased Reaction Biology (RBC HotSpot); settings: isolated kinase enzyme, 33P-ATP, P81 filter-binding
T2 sequence (P36888 27-993): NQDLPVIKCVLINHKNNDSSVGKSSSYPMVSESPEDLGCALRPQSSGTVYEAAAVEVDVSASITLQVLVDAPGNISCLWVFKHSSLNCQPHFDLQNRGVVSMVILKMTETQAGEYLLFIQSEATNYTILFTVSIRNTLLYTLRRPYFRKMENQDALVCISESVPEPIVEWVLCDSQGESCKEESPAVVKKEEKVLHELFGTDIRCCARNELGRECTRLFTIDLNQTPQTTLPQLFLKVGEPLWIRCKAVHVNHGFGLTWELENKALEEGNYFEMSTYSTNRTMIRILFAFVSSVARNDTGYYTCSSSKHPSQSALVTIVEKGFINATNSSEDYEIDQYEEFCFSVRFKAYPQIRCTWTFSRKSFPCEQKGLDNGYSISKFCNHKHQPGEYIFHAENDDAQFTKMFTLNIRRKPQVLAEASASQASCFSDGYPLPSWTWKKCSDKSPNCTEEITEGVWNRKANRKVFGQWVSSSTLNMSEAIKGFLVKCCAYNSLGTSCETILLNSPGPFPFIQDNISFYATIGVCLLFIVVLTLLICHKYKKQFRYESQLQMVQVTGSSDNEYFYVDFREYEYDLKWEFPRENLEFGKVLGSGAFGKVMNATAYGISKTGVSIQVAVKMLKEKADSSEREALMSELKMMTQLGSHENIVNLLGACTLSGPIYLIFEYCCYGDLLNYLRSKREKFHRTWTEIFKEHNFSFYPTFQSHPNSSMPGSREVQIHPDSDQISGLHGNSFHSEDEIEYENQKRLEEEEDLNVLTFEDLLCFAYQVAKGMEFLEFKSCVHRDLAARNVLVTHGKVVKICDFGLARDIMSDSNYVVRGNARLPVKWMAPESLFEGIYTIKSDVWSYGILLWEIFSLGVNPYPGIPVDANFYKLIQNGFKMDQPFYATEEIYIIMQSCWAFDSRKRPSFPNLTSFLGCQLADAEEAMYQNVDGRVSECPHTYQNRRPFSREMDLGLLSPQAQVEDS
Procedure, shortened: (§3)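 Reactions ran in 20 mM Hepes (pH 7.5) containing 10 mM MgCl2, 1 mM EGTA, 0.1 mM Na3VO4, 2 mM DTT, 0.02 mg/ml BSA, 0.01% Brij35 and 1% DMSO, plus required cofactors. Functional activity readout on the expressible enzyme form, sometimes C-terminally truncated or lacking receptor regulatory regions.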

IRAK1 = target: T3, IRAK1 (Homo sapiens, UniProt P51617); experiment: RBC HotSpot Kinase Assay, IRAK1; format: biochemical; settings: isolated kinase enzyme, 33P-ATP, P81 filter-binding
T3 construct: purchased Reaction Biology (RBC HotSpot)
Procedure, shortened: as §3

THP1 cells (FLT3 WT) = experiment: Combination drug screening with venetoclax in THP1 cells (Cell Titre Glo, 10 × 10); format: cell-based; settings: for Excess HSA (sum excess HSA score, combination with venetoclax): 10 × 10 dataset, Cell Titre Glo at 48 hours, optimal of 4 dose combinations, negative = synergy; for Concentration needed to decrease the 312.5 nM Venetoclax response to <20%: Cell Titer Glo at 48 hours
Protocol: as §1, §2

MOLM14 D835Y cells = experiment: MOLM14 D835Y cell viability assay (Cell Titer Glo); format: cell-based; settings: Homo sapiens, MOLM-14, 48 h, cell viability, Cell Titer Glo, 48 hours; read-out: MOLM14 D835Y IC50
Procedure, shortened: (§4)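 Luminescent ATP read-out (CellTiter-Glo, 15 min room temperature) taken 48 h after compound addition. Cells were MOLM14 carrying FLT3 D835Y or F691L mutations, plated at 1000 cells per well.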

MOLM14 F691L cells = experiment: MOLM14 F691L cell viability assay (Cell Titer Glo); format: cell-based; settings: Homo sapiens, MOLM-14; cell viability, Cell Titer Glo, 48 hours; read-out: MOLM14 F691L IC50
Procedure, shortened: as §4

[2] = tested on: NF-κB-inducible SEAP reporter in THP-1-Blue NF-κB cells; experiment: NF-kB SEAP reporter assay in THP-1-Blue NF-κB cells; format: cell-based; settings: 24 hours
Protocol: THP-1-Blue NF-κB cells (InvivoGen) carrying a stable integrated NF-κB-inducible secreted embryonic alkaline phosphatase (SEAP) reporter construct were plated at a concentration of 1×10^5 cells per well. The cells were stimulated with Pam3CSK4 (1 ng/mL) or hIL1B (1 ng/mL). After 10-20 minutes, the cells were then treated with vehicle (DMSO) or serial dilutions of the test compounds (10 doses tested for each test compound, with a 1:10 dilution series starting at 1 μM or 3 μM) with a final volume of 200 μL for 24 hours at 37° C. After 24 hours, the cells were centrifuged and 20 μL supernatant was incubated with 180 μL QUANTI-Blue reagent at 37° C. for 30-60 minutes. The levels of NF-κB-induced was measured in a microplate reader at 620 nm.

[3] = THP-1-Blue NF-κB cells stimulated with Pam3CSK4 (1 ng/mL), read-out: NF-κB Pam3SCK4 IC50
[4] = THP-1-Blue NF-κB cells stimulated with hIL1B (1 ng/mL), read-out: NF-κB IL1B IC50

T3 sequence (P51617 whole entry): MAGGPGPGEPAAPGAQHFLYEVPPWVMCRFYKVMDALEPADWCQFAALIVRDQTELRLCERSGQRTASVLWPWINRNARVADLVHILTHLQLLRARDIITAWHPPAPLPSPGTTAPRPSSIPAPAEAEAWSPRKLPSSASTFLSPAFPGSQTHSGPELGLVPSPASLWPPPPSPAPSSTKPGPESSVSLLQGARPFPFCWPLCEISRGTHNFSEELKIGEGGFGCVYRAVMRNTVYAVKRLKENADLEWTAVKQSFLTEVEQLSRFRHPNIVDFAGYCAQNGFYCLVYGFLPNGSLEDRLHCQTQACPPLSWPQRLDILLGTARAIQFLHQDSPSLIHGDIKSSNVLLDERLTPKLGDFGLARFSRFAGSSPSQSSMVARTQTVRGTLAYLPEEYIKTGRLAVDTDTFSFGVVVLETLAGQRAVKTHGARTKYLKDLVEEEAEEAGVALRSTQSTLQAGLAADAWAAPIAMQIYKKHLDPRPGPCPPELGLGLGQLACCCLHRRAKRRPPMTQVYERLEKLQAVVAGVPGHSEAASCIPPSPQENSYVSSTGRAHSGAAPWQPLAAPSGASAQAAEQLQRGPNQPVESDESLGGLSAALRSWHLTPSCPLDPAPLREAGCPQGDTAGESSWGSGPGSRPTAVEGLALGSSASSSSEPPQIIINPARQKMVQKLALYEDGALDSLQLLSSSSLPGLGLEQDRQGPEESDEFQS

| SMILES | Excess HSA (sum excess HSA score, combination with venetoclax) [1] | Concentration of a compound of the disclosure, or gilteritinib, needed to decrease the 62.5 nM Ven response to <10% in MOLM14(D835Y) cells [1] [nM] | IC50 (IRAK4) [nM] | IC50 (FLT3) [nM] | IC50 (IRAK1) [nM] | Excess HSA (sum excess HSA score, combination with venetoclax) (THP1 cells (FLT3 WT)) | Concentration needed to decrease the 312.5 nM Venetoclax response to <20% (THP1 cells (FLT3 WT)) [µM] | IC50 (MOLM14 D835Y cells) [nM] | IC50 (MOLM14 F691L cells) [nM] | IC50 [2, 3] [nM] | IC50 [2, 4] [nM] |
| --- | --- | --- | --- | --- | --- | --- | --- | --- | --- | --- | --- |
| CC(O)(c1ccc2ncc(-c3nc(N[C@H]4CNCC[C@@H]4F)ncc3F)n2c1)C(F)(F)F (single isomer, unassigned) [Compound 34a] | −1437.9420 | 100 | 2 | 0.6 | 4 | −683.5 | 1.25 | 51 | – | – | – |
| COc1cc2ncc(-c3nc(N[C@@H]4CCCNC4)ncc3F)n2nc1C12CC(C1)C2 [Compound 68a, (R)-4-(6-(bicyclo[1.1.1]pentan-1-yl)-7-methoxyimidazo[1,2-b]pyridazin-3-yl)-5-fluoro-N-(piperidin-3-yl)pyrimidin-2-amine] | – | – | 0.8 | < 0.5 | 0.9 | – | – | 3 | 20 | 144 | 108 |
| COc1cc2ncc(-c3nc(N[C@@H]4CCCNC4)ncc3F)n2nc1C1COC1 [Compound 94a, (R)-5-fluoro-4-(7-methoxy-6-(oxetan-3-yl)imidazo[1,2-b]pyridazin-3-yl)-N-(piperidin-3-yl)pyrimidin-2-amine] | – | – | 4 | < 0.5 | 28 | – | – | 6 | 40 | 188 | 206 |
| COc1cnc(N[C@H]2CNC[C@@H]2F)nc1-c1cnc2cc(OC)c(C3CC3)nn12 [Compound 104a, 4-(6-cyclopropyl-7-methoxyimidazo[1,2-b]pyridazin-3-yl)-N-((3S,4S)-4-fluoropyrrolidin-3-yl)-5-methoxypyrimidin-2-amine] | −2179 | – | 25 | 14 | 4860 | – | – | 711 | 6340 | – | – |
| COc1cc2ncc(-c3nc(N[C@H]4CNC[C@@H]4F)ncc3F)n2nc1N1CCOCC1 [Compound 119a, 5-fluoro-N-((3S,4S)-4-fluoropyrrolidin-3-yl)-4-(7-methoxy-6-morpholinoimidazo[1,2-b]pyridazin-3-yl)pyrimidin-2-amine] | – | – | < 0.5 | < 0.5 | 1 | – | – | 4 | 45 | 57 | 69 |
| COc1cc2ncc(-c3nc(N[C@@H]4CCCNC4)ncc3F)n2nc1N1CCOCC1 [Compound 120a, (R)-5-fluoro-4-(7-methoxy-6-morpholinoimidazo[1,2-b]pyridazin-3-yl)-N-(piperidin-3-yl)pyrimidin-2-amine] | – | – | 10 | < 0.5 | 10 | – | – | 5 | 45 | 339 | 217 |
| COc1cc2ncc(-c3nc(N[C@H]4CNCC[C@@H]4F)ncc3F)n2nc1N1CCOCC1 [Compound 121a, 5-fluoro-N-((3S,4S)-4-fluoropiperidin-3-yl)-4-(7-methoxy-6-morpholinoimidazo[1,2-b]pyridazin-3-yl)pyrimidin-2-amine] | – | – | 0.7 | < 0.5 | 1 | – | – | 2 | 20 | 89 | 57 |
| COc1cc2ncc(-c3nc(N[C@H]4CNCC[C@@H]4F)ncc3F)n2nc1N1CCS(=O)(=O)CC1 [Compound 122a, 4-(3-(5-fluoro-2-(((3S,4S)-4-fluoropiperidin-3-yl)amino)pyrimidin-4-yl)-7-methoxyimidazo[1,2-b]pyridazin-6-yl)thiomorpholine 1,1-dioxide] | – | – | 18 | < 0.5 | 22 | – | – | 11 | 127 | 407 | 407 |
| COc1cc2ncc(-c3nc(N[C@H]4CNCC[C@@H]4F)ncc3F)n2nc1[C@H]1C[C@H](O)C1 [Compound 125a, (Trans)-3-(3-(5-fluoro-2-(((3S,4S)-4-fluoropiperidin-3-yl)amino)pyrimidin-4-yl)-7-methoxyimidazo[1,2-b]pyridazin-6-yl)cyclobutan-1-ol] | – | – | < 0.5 | < 0.5 | < 0.5 | – | – | 2 | 16 | 30 | 29 |
| COc1cc2ncc(-c3nc(N[C@H]4CNCC[C@@H]4F)ncc3F)n2nc1[C@H]1C[C@@H](O)C1 [Compound 126a, Cis-3-(3-(5-fluoro-2-(((3S,4S)-4-fluoropiperidin-3-yl)amino)pyrimidin-4-yl)-7-methoxyimidazo[1,2-b]pyridazin-6-yl)cyclobutan-1-ol] | – | – | < 0.5 | < 0.5 | 37 | – | – | 4 | 80 | 192 | 183 |
| CCc1nc(C(N)=O)c(Nc2ccc(N3CCC(N4CCN(C)CC4)CC3)c(OC)c2)nc1NC1CCOCC1 [Gilteritinib, reference compound] | −1556 | 125 | – | – | – | −1626 | 10 | – | – | – | – |
